Holding throughout (format): cell-based
The target in experiment [1] is T1, pEGFR, PC-9 cells (d746-750 EGFR) (Homo sapiens, UniProt P00533, DEL746-750).
T1 construct: pEGFR (Tyr1068) TR-FRET
Kind of experiment: Cellular EGFR phosphorylation assay (LANCE Ultra TR-FRET) in PC-9 cells. The procedure, abridged:
(§1)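 pEGFR Tyr1068 TR-FRET readout, lysates after 4 h compound exposure (37 °C, 5% CO2); 9-dose 3-fold series. A431 only: EGF 40 ng/mL for last 10 min. IC50 from curve fit.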
For orientation: TR-FRET usually uses a lanthanide donor and a delayed reading to cut background.

The target in experiment [2] is T2, pEGFR, NCI-H1975 cells (L858R/T790M EGFR) (Homo sapiens, UniProt P00533, L858R/T790M).
T2 construct: pEGFR (Tyr1068) TR-FRET
The experiment is described as follows: Cellular EGFR phosphorylation assay (LANCE Ultra TR-FRET) in NCI-H1975 cells. A digest of the protocol: as §1

The target in experiment [3] is T3, pEGFR, A431 cells (wildtype EGFR) (Homo sapiens, UniProt P00533).
T3 construct: pEGFR (Tyr1068) TR-FRET
Kind of experiment: Cellular EGFR phosphorylation assay (LANCE Ultra TR-FRET) in A431 cells. A digest of the protocol:
as §1

In the next experiment the test system is PC-9 cells. The experiment is described as follows: 5-Day CellTiter Glo (CTG) cell proliferation assay, PC-9. To be noted: Homo sapiens; PC-9 cells (d746-750 EGFR), 5-day CTG proliferation, 120 hours; read-out: PC-9 IC50. A digest of the protocol: (§2)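 Luminescent ATP signal (CellTiter-Glo 2.0) after 120 hours of compound exposure gave IC50 values. PC-9 and HCC827 harbour EGFR d746-750; NCI-H1975 harbours L858R/T790M.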
Background: In ATP-based viability assays light output follows the ATP content of the culture.

For a further experiment, the system named is NCI-H1975 cells. Kind of experiment: 5-Day CellTiter Glo (CTG) cell proliferation assay, NCI-H1975. Conditions: Homo sapiens; NCI-H1975 cells (L858R/T790M EGFR), 5-day CTG proliferation, 120 hours; read-out: H1975 IC50. The procedure, abridged: as §2
The subject of another experiment is HCC827 cells. Kind of experiment: 5-Day CellTiter Glo (CTG) cell proliferation assay, HCC827. To be noted: Homo sapiens; HCC827 cells (d746-750 EGFR), 5-day CTG proliferation, 120 hours; read-out: HCC827 IC50. A digest of the protocol: as §2
Experiment [4] relates to BaF3 cells with engineered EGFR L858R/T790M/C797S. The experiment is described as follows: 3-Day CellTiter Glo (CTG) cell proliferation assay, BaF3 EGFR L858R/T790M/C797S. To be noted: Mus musculus, 3-day CTG proliferation, 72 hours. The procedure, abridged: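 Luminescent ATP read-out (CellTiter-Glo 2.0) after 72 h compound exposure gives IC50 values. BaF3 transgenic cells, one thousand per well, received a nine-dose series and were kept at 37 °C under 5% CO2.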

Experiment [5] concerns BaF3 cells with engineered EGFR L858R/C797S. Kind of experiment: 3-Day CellTiter Glo (CTG) cell proliferation assay, BaF3 EGFR L858R/C797S. To be noted: Mus musculus, 3-day CTG proliferation, 72 hours. On the procedure: (§3) 3-DAY CellTiter Glo (CTG) Cell Proliferation Assays (BaF3 Cell Lines)
(§4) Cell proliferation assays were carried out in BaF3 cells engineered with EGFR mutations. BaF3 cells with engineered EGFR L858R/T790M/C797S, EGFR L858R/C797S, or EGFR d746-750/T790M transgene, one thousand cells/50 μL per well were seeded in white 384-well plate, followed by treatment with indicated compounds in a 9-dose dilution series using TECAN d300e liquid dispenser. Cells were incubated with compounds for 72 hours at 37° C. and 5% CO2. Cell proliferation was measured using CellTiter-Gbo 2.0 luciferase-based ATP detection assay (Promega, Madison, WI) at 18 μL per well following the manufacturer's protocol. Plates were then read on a TECAN Sparks multimode microplate reader. Data was analyzed using GraphPad Prism 9 (GraphiPad Software, San Diego, CA) to obtain IC50 values.

For experiment [6], the system named is BaF3 cells with engineered EGFR d746-750/T790M. Kind of experiment: 3-Day CellTiter Glo (CTG) cell proliferation assay, BaF3 EGFR d746-750/T790M. Conditions: Mus musculus; BaF3 EGFR d746-750/T790M cells, 3-day CTG proliferation, 72 hours. On the procedure: as §3, §4
Setting [7] is: 4 hours at 37° C., read-out: PC-9 pEGFR IC50.
The mark [8] stands for this setting: 4 hours at 37° C., read-out: H1975 pEGFR IC50.
Setting [9] is: 4 hours at 37° C., 40 ng/mL EGF for the final 10 minutes, read-out: A431 pEGFR IC50.

The structures appear in SMILES notation. Like-named read-outs stand apart in the source and are kept apart here.

T3 sequence (P00533 25-1210): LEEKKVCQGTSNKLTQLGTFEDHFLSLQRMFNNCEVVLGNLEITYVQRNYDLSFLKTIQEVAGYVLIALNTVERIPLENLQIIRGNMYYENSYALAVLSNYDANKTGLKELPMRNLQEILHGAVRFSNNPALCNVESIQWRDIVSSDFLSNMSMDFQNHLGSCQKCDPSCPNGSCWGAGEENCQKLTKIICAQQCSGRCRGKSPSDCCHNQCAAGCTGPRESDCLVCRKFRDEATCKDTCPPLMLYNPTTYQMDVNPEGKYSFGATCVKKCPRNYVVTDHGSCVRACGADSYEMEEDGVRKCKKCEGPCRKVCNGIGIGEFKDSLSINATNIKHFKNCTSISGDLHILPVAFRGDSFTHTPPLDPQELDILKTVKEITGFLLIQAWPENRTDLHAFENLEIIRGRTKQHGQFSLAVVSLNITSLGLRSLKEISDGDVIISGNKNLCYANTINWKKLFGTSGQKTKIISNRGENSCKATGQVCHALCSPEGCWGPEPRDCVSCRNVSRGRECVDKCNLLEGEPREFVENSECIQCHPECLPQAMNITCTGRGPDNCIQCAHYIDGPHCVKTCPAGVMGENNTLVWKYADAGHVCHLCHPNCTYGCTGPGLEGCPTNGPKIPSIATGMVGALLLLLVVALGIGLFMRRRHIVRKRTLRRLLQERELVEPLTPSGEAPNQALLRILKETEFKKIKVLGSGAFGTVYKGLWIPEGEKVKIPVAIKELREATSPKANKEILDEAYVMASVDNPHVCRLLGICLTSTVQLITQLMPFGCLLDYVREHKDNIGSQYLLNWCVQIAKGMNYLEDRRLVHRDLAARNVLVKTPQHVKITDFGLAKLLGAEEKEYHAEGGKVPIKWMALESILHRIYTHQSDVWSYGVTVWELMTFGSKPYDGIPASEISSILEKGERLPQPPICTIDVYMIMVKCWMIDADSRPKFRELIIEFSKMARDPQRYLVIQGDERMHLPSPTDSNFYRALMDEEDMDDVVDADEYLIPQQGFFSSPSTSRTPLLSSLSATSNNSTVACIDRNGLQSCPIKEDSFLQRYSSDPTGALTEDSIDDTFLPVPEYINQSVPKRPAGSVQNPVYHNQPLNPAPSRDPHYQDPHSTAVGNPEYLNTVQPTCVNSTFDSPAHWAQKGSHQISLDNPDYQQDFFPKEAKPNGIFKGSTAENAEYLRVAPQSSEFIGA
T1 sequence (P00533 with tags, fused parts or gaps DEL746-750): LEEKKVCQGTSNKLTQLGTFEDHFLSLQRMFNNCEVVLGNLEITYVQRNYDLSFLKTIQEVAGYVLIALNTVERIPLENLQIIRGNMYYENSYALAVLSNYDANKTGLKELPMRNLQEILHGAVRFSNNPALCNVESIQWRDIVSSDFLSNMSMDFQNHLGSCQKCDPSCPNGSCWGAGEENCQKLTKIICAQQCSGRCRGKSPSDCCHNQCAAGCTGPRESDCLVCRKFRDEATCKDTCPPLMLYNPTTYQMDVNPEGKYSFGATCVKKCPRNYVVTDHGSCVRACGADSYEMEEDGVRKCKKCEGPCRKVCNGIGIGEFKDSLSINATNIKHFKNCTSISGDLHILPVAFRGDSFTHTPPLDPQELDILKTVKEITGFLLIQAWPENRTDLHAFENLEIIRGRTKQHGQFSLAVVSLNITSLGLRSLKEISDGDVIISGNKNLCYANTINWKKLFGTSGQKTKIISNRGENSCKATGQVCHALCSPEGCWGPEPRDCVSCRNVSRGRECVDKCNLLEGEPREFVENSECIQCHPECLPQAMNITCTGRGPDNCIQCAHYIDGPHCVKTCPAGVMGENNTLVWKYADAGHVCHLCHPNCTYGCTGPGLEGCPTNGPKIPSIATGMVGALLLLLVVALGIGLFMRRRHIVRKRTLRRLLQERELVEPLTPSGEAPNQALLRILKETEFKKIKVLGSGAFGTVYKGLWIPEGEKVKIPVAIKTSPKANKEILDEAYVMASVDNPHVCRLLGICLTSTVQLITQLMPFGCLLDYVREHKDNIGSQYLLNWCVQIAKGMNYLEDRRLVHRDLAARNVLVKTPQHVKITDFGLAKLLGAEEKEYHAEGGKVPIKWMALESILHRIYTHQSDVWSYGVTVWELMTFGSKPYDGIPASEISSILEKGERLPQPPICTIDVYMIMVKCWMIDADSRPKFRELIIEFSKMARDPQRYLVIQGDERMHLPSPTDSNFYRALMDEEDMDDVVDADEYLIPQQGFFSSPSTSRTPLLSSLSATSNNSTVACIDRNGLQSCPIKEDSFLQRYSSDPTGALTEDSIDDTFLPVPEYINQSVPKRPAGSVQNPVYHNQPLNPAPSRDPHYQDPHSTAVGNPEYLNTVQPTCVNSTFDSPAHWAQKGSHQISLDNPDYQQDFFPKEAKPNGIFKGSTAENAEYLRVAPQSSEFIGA
T2 sequence (P00533 25-1210 T790M/L858R): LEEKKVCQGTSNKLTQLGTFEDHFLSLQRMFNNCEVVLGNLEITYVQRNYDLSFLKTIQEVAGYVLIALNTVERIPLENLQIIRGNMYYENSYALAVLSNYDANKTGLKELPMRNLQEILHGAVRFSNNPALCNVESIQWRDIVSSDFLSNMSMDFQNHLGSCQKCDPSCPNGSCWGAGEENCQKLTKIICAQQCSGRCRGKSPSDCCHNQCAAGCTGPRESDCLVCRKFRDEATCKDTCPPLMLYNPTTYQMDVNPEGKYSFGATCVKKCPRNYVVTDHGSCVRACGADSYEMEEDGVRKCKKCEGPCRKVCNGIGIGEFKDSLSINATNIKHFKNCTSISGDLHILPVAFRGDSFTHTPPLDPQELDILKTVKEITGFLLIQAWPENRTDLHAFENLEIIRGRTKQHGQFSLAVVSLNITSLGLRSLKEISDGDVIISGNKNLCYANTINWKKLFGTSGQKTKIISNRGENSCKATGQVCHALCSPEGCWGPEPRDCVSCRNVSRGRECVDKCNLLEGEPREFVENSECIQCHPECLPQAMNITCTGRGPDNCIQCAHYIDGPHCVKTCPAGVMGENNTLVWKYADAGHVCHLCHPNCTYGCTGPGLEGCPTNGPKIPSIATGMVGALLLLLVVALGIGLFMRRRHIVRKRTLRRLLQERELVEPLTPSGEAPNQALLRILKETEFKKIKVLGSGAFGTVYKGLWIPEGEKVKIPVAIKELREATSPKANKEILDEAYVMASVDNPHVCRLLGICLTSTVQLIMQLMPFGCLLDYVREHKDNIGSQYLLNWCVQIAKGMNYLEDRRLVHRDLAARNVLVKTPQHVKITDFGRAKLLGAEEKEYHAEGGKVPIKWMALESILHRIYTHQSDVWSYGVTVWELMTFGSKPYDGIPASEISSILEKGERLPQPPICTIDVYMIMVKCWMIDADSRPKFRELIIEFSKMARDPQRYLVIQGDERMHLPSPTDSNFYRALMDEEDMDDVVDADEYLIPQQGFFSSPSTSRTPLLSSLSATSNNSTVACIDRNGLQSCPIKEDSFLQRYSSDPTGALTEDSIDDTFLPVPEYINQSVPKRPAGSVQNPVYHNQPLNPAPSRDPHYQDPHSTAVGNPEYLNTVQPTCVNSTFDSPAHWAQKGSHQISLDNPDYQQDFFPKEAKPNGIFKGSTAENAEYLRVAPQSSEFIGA

On to `CCNc1nn([C@@H](C)CO)c2c1/C=C/c1n[nH]c3cnc(cc13)-c1c(C)nn(C)c1O[C@@H](C)CN(C)C2` [Ex. 93, (2S)-2-[(10S,17E)-16-(ethylamino)-6,8,10,12-tetramethyl-2,8,10,11,12,13-hexahydro-14H-5,3-(azenometheno)tripyrazolo[3,4-f:3′,4′-j:4″,3″-n][1,4]oxazacyclopentadecin-14-yl]propan-1-ol], for which the IC50 in experiment [1] (setting [7]) was 2.05 nM; in experiment [2] (setting [8]) it was 3.54 nM; in [3] (setting [9]) it was 19.6 nM; with PC-9 cells, 1.98 nM; in the experiment with NCI-H1975 cells, 2 nM; with HCC827 cells it was 0.51 nM. Further, the IC50 in experiment [4] amounted to 1.65 nM; in experiment [5], 0.13 nM; in experiment [6] it was 1.8 nM.

In the case of `CCNc1nn([C@@H](C)CO)c2c1/C=C/c1n[nH]c3c(C)nc(cc13)-c1c(C)nn(C)c1O[C@@H](C)CN(C)C2` [Ex. 94, (2S)-2-[(10S,17E)-16-(ethylamino)-6,8,10,12,20-pentamethyl-2,8,10,11,12,13-hexahydro-14H-5,3-(azenometheno)tripyrazolo[3,4-f:3′,4′-j:4″,3″-n][1,4]oxazacyclopentadecin-14-yl]propan-1-ol], the IC50 came to 2.31 nM in [1] (read-out: PC-9 pEGFR IC50, 4 hours at 37° C.); 1.55 nM in [2] (read-out: H1975 pEGFR IC50, 4 hours at 37° C.); 17.8 nM in experiment [3] (read-out: A431 pEGFR IC50, 4 hours at 37° C., 40 ng/mL EGF for the final 10 minutes); 3.52 nM in the experiment with PC-9 cells; 1.76 nM in the experiment on NCI-H1975 cells; 0.71 nM in the experiment with HCC827 cells. The IC50 in experiment [4] came out at 0.93 nM; in [5] it was 0.09 nM; in experiment [6], 1.23 nM.

Regarding `CCOc1nn([C@H](C)CO)c2c1/C=C/c1n[nH]c3c(C)nc(cc13)-c1c(C)nn(C)c1O[C@@H](C)CN(C)C2` [Ex. 95, (2R)-2-[(10S,17E)-16-ethoxy-6,8,10,12,20-pentamethyl-2,8,10,11,12,13-hexahydro-14H-5,3-(azenometheno)tripyrazolo[3,4-f:3′,4′-j:4″,3″-n][1,4]oxazacyclopentadecin-14-yl]propan-1-ol], the IC50 is 3.35 nM in experiment [1] (setting [7]); 1.76 nM in experiment [2] (setting [8]); 17.7 nM in experiment [3] (setting [9]); 5.19 nM in the experiment with PC-9 cells; 2.86 nM in the experiment on NCI-H1975 cells; 1.15 nM in the experiment with HCC827 cells. Moreover, the results for the IC50 in experiment [4], in experiment [5] and in experiment [6] were 0.74 nM, 0.13 nM and 2.14 nM, respectively.

For the compound `CCOc1nn([C@@H](C)CO)c2c1/C=C/c1n[nH]c3cnc(cc13)-c1c(C)nn(C)c1OC[C@@H](C)N(C)C2` [Ex. 97, (2S)-2-[(11R,17E)-16-ethoxy-6,8,11,12-tetramethyl-2,8,10,11,12,13-hexahydro-14H-5,3-(azenometheno)tripyrazolo[3,4-f:3′,4′-j:4″,3″-n][1,4]oxazacyclopentadecin-14-yl]propan-1-ol], the IC50 in experiment [1] (setting [7]) was determined as 1.08 nM; in [2] (setting [8]), 1.62 nM; in [3] (setting [9]), 11 nM; with PC-9 cells, 1.39 nM; in the experiment on NCI-H1975 cells, 1.77 nM; in the experiment with HCC827 cells it was 0.2 nM. In addition, the figures for the IC50 in experiment [4], in experiment [5] and in [6] were 0.43 nM, 0.04 nM and 0.4 nM, respectively.

For `CCOc1nn([C@@H](C)CO)c2c1/C=C/c1n[nH]c3c(C)nc(cc13)-c1c(C)nn(C)c1O[C@H](C)CN(C)C2` [Ex. 98], the IC50 is 3.62 nM in experiment [1] (setting [7]); 1.9 nM in experiment [2] (setting [8]); 16.8 nM in experiment [3] (setting [9]); 5.71 nM in the experiment with PC-9 cells; 3.34 nM in the experiment with NCI-H1975 cells; 1.35 nM in the experiment with HCC827 cells. The IC50 was 0.74 nM in [4], 0.24 nM in experiment [5] and 1.01 nM in [6].

As for `CNc1nn([C@@H](C)CO)c2c1/C=C/c1n[nH]c3c(C)nc(cc13)-c1c(C)nn(C)c1O[C@@H](C)CN(C)C2` [Ex. 101, (2S)-2-[(10S,17E)-6,8,10,12,20-pentamethyl-16-(methylamino)-2,8,10,11,12,13-hexahydro-14H-5,3-(azenometheno)tripyrazolo[3,4-f:3′,4′-j:4″,3″-n][1,4]oxazacyclopentadecin-14-yl]propan-1-ol], the IC50 in experiment [1] (setting [7]) was 4.17 nM; in experiment [2] (setting [8]), 2.68 nM; in [3] (setting [9]), 34.7 nM; with PC-9 cells, 8.86 nM; with NCI-H1975 cells it was 3.6 nM; with HCC827 cells it was 1.05 nM. Besides, the IC50 in experiment [4] was 1.37 nM; in [5], 0.2 nM; in experiment [6] it was 4.36 nM.

As to `Cc1nn(C)c2c1/C=C/c1n[nH]c3c(C)nc(cc13)-c1c(C)nn(C)c1O[C@@H](C)CN(C)C2` [Ex. 103, (10S,17E)-6,8,10,12,14,16,20-heptamethyl-2,10,11,12,13,14-hexahydro-8H-5,3-(azenometheno)tripyrazolo[3,4-f:3′,4′-j:4″,3″-n][1,4]oxazacyclopentadecine], the IC50 stood at 9.78 nM in [1] (setting [7]); 3.44 nM in experiment [2] (setting [8]); 13.4 nM in experiment [3] (setting [9]); 9.94 nM in the experiment on PC-9 cells; 11.2 nM in the experiment with NCI-H1975 cells; 2.13 nM in the experiment with HCC827 cells. In addition, the IC50 in experiment [4] came out at 1.87 nM; in [5], 0.56 nM; in [6], 13.6 nM.

As for `Cc1nn(C)c2c1/C=C/c1n[nH]c3c(C)nc(cc13)-c1c(C)nn(C)c1O[C@@H](C)CN(C(C)C)C2` [Ex. 106, (10S,17E)-6,8,10,14,16,20-hexamethyl-12-(propan-2-yl)-2,10,11,12,13,14-hexahydro-8H-5,3-(azenometheno)tripyrazolo[3,4-f:3′,4′-j:4″,3″-n][1,4]oxazacyclopentadecine], the IC50 was determined as 9 nM in experiment [1] (setting [7]); 3.03 nM in experiment [2] (setting [8]); 10.2 nM in experiment [3] (setting [9]); 14.6 nM in the experiment with PC-9 cells; 7.92 nM with NCI-H1975 cells; 2.18 nM with HCC827 cells. Moreover, the results for the IC50 in [4], in experiment [5] and in experiment [6] were 3.41 nM, 1.37 nM and 4.75 nM, respectively.

For the compound `CCOc1nn(C[C@H](C)O)c2c1/C=C/c1n[nH]c3cnc(cc13)-c1c(C)nn(C)c1O[C@@H](C)CN(C1CC1)C2` [Ex. 107, (2S)-1-[(10S,17E)-12-cyclopropyl-16-ethoxy-6,8,10-trimethyl-2,8,10,11,12,13-hexahydro-14H-5,3-(azenometheno)tripyrazolo[3,4-f:3′,4′-j:4″,3″-n][1,4]oxazacyclopentadecin-14-yl]propan-2-ol], the IC50 came out at 4.41 nM in experiment [1] (setting [7]); 7.07 nM in experiment [2] (setting [8]); 5.13 nM in experiment [3] (setting [9]); 10.6 nM in the experiment on PC-9 cells; 55.2 nM in the experiment on NCI-H1975 cells; 2.12 nM in the experiment on HCC827 cells. In addition, the values for the IC50 in experiment [4], in experiment [5] and in [6] were 3.55 nM, 0.49 nM and 4 nM, respectively.

For `Cc1nn(CCO)c2c1/C=C/c1n[nH]c3c(C)nc(cc13)-c1c(C)nn(C)c1O[C@@H](C)CN(C(C)C)C2` [Ex. 109, 2-[(10S,17E)-6,8,10,16,20-pentamethyl-12-(propan-2-yl)-2,8,10,11,12,13-hexahydro-14H-5,3-(azenometheno)tripyrazolo[3,4-f3′,4′-j:4″,3″-n][1,4]oxazacyclopentadecin-14-yl]ethan-1-ol], the IC50 in [1] (setting [7]) is 2.91 nM; in experiment [2] (setting [8]), 1.79 nM; in experiment [3] (setting [9]), 3.52 nM; in the experiment with PC-9 cells it was 5.53 nM; in the experiment on NCI-H1975 cells it was 2.65 nM; in the experiment on HCC827 cells, 0.9 nM. Moreover, the IC50 in experiment [4] was 1.17 nM; in experiment [5], 0.24 nM; in experiment [6], 1.17 nM.

These data come from patent US20260317344A1, “EGFR INHIBITORS FOR TREATING DISEASE” (BLOSSOMHILL THERAPEUTICS, INC., priority 2023, published 2026).
